Experimental data from ChEMBL document CHEMBL4507291 (2021).

Legend:
[1] = molecular target: Adenosine receptor A2a (Homo sapiens) (UniProt P29274); conditions: Compound concentration 10.0 uM
[2] = molecular target: Angiopoietin-1 receptor (Homo sapiens) (UniProt Q02763); test: TEK (Tie2) Kinase screen; conditions: Compound concentration 1.0 uM
[3] = molecular target: Ephrin type-A receptor 2 (Homo sapiens) (UniProt P29317); test: EPHA2 Kinase screen; conditions: Compound concentration 1.0 uM
[4] = molecular target: 5-hydroxytryptamine receptor 2A (Homo sapiens) (UniProt P28223); conditions: Compound concentration 10.0 uM
[5] = molecular target: RAC-alpha serine/threonine-protein kinase (Homo sapiens) (UniProt P31749); test: AKT1 (PKB alpha) Kinase screen; conditions: Compound concentration 1.0 uM
[6] = molecular target: Epidermal growth factor receptor (Homo sapiens) (UniProt P00533); test: EGFR (ErbB1) Kinase screen; conditions: Compound concentration 1.0 uM
[7] = molecular target: Serine/threonine-protein kinase PAK 1 (Homo sapiens) (UniProt Q13153); test: PAK1 Kinase screen; conditions: Compound concentration 1.0 uM
[8] = molecular target: Tyrosine-protein kinase HCK (Homo sapiens) (UniProt P08631); test: HCK Kinase screen; conditions: Compound concentration 1.0 uM
[9] = molecular target: T1, Dual specificity protein kinase TTK (Homo sapiens) (UniProt P33981); test: TTK Kinase screen; conditions: Compound concentration 1.0 uM
T1 sequence (whole entry): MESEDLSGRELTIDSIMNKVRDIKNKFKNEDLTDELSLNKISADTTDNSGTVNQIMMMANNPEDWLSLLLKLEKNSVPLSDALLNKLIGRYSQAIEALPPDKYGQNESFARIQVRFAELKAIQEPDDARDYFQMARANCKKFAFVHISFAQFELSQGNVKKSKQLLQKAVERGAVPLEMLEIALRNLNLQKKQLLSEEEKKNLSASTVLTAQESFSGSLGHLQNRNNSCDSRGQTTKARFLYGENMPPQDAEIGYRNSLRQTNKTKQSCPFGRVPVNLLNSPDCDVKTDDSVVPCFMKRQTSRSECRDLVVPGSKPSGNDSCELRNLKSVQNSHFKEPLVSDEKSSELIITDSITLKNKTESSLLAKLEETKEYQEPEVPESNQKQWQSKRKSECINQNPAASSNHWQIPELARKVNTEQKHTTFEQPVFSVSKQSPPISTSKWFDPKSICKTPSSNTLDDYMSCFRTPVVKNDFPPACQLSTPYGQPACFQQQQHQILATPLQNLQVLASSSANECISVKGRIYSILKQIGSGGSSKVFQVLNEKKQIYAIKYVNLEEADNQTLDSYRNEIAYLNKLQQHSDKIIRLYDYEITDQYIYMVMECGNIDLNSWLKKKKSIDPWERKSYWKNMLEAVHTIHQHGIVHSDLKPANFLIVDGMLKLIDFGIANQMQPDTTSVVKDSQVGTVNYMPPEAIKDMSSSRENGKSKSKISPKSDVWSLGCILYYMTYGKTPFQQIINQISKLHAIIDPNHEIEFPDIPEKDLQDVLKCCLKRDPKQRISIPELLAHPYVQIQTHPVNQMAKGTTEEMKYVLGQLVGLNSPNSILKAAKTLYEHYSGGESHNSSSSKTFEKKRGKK

[10] = system: Epidermal growth factor receptor (Homo sapiens), P00533 [L858R]; test: EGFR (ErbB1) L858R Kinase screen; conditions: Compound concentration 1.0 uM
[11] = molecular target: Eukaryotic elongation factor 2 kinase (Homo sapiens) (UniProt O00418); test: EEF2K Kinase screen; conditions: Compound concentration 1.0 uM
[12] = molecular target: Fibroblast growth factor receptor 1 (Homo sapiens) (UniProt P11362); test: FGFR1 Kinase screen; conditions: Compound concentration 1.0 uM
[13] = molecular target: AMP-activated protein kinase (AMPK) alpha-1/beta-1/gamma-1 (Homo sapiens) (UniProt P54619+Q9Y478+Q13131); test: AMPK A1/B1/G1 Kinase screen; assay type: protein-complex assay; conditions: Compound concentration 1.0 uM
[14] = molecular target: Fibroblast growth factor receptor 2 (Homo sapiens) (UniProt P21802); test: FGFR2 Kinase screen; conditions: Compound concentration 1.0 uM
[15] = molecular target: T2, Muscarinic acetylcholine receptor M4 (Homo sapiens) (UniProt P08173); conditions: Compound concentration 10.0 uM
T2 sequence (whole entry): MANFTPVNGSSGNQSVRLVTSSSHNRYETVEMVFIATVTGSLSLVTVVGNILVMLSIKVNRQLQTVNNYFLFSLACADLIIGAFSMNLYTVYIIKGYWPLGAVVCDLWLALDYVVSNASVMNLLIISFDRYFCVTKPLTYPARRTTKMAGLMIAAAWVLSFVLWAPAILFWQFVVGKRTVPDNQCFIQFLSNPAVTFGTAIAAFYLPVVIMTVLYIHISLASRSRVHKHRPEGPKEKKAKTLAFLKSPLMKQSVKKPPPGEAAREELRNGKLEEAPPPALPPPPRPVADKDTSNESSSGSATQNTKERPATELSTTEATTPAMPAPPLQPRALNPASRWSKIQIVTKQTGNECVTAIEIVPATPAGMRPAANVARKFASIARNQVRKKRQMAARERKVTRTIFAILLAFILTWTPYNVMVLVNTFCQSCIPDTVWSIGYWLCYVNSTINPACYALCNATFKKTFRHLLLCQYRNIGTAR

[16] = molecular target: MAP kinase-interacting serine/threonine-protein kinase 1 (Homo sapiens) (UniProt Q9BUB5); test: MKNK1 (MNK1) Kinase screen; conditions: Compound concentration 1.0 uM
[17] = molecular target: Mitogen-activated protein kinase kinase kinase 14 (Homo sapiens) (UniProt Q99558); test: MAP3K14 (NIK) Kinase screen; conditions: Compound concentration 1.0 uM
Bos taurus = organism: Bos taurus; test: Protein Serine/Threonine Kinase, PKA, Non-Selective Eurofins-Panlabs enzyme assay; assay type: protein-complex assay; design: substrate with concentration 370 µg/mL Histone Type III-S, incubation time 15 min, incubation temperature 25 °C; conditions: Compound concentration 10.0 uM
[18] = system: Dual specificity mitogen-activated protein kinase kinase 1 (Homo sapiens), Q02750 [S218D,S222D]; test: MAP2K1 (MEK1) S218D S222D Kinase screen; conditions: Compound concentration 1.0 uM

Measured: inhibition

Sequence of Eukaryotic elongation factor 2 kinase (Homo sapiens) (O00418 whole entry): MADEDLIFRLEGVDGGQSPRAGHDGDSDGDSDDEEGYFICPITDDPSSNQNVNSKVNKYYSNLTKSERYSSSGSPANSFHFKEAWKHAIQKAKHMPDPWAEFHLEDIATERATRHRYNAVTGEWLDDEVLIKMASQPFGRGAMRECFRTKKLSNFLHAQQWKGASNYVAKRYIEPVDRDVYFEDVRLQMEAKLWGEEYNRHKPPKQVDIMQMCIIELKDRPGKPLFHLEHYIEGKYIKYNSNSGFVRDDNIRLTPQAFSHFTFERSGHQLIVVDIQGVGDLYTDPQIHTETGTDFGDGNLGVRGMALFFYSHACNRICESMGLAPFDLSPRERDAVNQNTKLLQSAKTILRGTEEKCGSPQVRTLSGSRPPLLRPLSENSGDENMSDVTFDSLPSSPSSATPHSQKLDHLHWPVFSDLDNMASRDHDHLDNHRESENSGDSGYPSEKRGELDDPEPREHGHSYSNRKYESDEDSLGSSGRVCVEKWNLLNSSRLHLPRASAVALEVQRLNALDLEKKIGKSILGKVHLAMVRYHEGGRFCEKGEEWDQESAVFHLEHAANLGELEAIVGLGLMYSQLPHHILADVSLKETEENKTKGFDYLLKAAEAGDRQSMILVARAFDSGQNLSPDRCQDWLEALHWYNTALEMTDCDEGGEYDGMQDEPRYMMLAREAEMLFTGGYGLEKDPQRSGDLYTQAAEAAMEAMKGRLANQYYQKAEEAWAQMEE
Sequence of AMP-activated protein kinase (AMPK) alpha-1/beta-1/gamma-1 (Homo sapiens) (P54619 whole entry): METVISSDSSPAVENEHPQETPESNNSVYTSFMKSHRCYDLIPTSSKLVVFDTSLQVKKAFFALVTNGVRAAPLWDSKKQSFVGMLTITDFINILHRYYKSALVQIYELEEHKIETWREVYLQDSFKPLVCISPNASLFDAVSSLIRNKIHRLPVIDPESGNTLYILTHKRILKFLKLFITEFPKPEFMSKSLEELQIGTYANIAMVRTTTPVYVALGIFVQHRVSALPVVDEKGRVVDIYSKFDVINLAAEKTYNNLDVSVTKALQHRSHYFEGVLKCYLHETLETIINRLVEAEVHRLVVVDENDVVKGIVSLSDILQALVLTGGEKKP
Sequence of AMP-activated protein kinase (AMPK) alpha-1/beta-1/gamma-1 (Homo sapiens) (Q13131 whole entry partner): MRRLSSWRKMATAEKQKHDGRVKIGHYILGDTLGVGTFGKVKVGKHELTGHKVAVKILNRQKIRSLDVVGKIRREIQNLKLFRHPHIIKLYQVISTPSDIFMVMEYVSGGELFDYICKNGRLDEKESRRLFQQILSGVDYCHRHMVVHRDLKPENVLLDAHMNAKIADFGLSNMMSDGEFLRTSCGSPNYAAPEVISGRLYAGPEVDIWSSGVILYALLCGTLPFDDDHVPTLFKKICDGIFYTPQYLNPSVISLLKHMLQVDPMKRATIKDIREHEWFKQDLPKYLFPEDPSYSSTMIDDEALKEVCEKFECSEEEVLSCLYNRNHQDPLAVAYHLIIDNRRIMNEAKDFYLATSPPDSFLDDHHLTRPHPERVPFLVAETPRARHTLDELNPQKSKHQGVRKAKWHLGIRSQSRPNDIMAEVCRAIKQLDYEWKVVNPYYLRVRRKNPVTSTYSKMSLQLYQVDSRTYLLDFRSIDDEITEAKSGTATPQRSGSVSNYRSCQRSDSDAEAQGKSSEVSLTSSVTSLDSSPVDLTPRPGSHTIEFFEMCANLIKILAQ
Sequence of AMP-activated protein kinase (AMPK) alpha-1/beta-1/gamma-1 (Homo sapiens) (Q9Y478 2-270 partner limits assumed): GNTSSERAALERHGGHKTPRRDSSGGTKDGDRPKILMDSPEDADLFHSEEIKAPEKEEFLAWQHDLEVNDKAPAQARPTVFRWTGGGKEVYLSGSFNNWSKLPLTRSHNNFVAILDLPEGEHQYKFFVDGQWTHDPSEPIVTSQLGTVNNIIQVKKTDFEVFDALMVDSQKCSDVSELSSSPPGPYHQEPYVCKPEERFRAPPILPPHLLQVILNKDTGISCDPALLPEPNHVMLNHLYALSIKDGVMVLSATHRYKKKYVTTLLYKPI
Sequence of Adenosine receptor A2a (Homo sapiens) (P29274 whole entry): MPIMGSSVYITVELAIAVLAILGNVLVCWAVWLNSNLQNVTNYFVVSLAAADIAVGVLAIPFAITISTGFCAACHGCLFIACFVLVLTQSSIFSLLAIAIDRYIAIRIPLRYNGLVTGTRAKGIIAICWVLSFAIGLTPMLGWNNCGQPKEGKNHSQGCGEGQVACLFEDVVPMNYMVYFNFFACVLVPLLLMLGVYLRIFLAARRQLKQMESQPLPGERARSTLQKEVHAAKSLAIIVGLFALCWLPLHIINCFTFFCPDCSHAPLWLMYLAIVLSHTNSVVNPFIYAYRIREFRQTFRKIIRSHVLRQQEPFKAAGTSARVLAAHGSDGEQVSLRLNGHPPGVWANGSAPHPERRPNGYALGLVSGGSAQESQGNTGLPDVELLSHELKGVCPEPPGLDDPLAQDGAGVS
Sequence of Tyrosine-protein kinase HCK (Homo sapiens) (P08631 2-526 limits assumed): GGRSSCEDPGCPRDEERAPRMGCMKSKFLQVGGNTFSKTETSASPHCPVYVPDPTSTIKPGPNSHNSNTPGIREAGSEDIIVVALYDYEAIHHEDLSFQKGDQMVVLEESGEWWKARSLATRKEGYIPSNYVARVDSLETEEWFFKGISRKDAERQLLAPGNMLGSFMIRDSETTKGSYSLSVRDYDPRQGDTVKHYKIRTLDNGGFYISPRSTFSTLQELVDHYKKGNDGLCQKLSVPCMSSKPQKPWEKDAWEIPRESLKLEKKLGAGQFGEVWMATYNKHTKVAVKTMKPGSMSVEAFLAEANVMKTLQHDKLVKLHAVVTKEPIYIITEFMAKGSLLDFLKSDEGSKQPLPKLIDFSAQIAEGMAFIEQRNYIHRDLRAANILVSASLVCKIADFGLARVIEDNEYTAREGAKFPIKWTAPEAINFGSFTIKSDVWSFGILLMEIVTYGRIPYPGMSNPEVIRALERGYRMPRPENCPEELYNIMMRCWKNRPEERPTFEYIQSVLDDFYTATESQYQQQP
Sequence of MAP kinase-interacting serine/threonine-protein kinase 1 (Homo sapiens) (Q9BUB5 whole entry, looked up): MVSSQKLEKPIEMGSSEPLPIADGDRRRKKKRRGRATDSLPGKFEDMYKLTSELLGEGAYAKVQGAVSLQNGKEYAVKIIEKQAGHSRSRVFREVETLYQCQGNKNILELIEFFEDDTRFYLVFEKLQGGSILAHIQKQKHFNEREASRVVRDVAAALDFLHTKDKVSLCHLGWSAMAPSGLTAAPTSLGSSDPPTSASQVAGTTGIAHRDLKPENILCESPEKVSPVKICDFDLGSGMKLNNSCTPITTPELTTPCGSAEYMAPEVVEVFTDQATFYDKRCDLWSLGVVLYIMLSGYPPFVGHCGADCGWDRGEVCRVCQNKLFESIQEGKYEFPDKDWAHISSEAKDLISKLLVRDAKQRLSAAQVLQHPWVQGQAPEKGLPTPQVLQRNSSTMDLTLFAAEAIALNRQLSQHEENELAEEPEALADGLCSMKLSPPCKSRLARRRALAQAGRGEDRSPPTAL
Sequence of Mitogen-activated protein kinase kinase kinase 14 (Homo sapiens) (Q99558 whole entry, looked up): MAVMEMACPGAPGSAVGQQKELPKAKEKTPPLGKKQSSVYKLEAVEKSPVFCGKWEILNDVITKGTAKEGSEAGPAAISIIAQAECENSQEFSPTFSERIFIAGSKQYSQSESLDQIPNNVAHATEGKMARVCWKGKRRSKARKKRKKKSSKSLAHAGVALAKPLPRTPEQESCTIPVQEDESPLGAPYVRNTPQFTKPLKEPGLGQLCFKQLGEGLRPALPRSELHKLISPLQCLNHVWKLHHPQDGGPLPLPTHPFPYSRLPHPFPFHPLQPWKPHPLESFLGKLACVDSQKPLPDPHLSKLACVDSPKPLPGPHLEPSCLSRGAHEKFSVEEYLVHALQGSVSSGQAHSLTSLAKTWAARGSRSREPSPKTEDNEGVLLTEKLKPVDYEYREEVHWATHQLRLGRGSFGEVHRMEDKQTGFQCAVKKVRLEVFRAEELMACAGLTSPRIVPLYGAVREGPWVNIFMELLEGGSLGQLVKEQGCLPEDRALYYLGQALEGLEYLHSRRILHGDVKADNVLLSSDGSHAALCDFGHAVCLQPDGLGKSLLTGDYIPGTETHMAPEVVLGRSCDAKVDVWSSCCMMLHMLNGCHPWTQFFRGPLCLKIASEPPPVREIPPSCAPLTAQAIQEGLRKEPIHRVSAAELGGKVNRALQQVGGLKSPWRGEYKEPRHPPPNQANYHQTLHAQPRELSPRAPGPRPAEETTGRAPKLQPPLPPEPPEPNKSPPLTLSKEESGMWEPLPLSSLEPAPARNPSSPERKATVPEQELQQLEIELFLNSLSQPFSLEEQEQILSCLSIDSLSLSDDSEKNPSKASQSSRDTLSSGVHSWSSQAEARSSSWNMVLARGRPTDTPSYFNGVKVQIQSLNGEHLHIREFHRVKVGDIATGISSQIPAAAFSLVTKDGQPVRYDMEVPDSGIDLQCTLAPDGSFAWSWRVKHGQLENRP
Sequence of Dual specificity mitogen-activated protein kinase kinase 1 (Homo sapiens), Q02750 [S218D,S222D] (Q02750 whole entry S218D/S222D): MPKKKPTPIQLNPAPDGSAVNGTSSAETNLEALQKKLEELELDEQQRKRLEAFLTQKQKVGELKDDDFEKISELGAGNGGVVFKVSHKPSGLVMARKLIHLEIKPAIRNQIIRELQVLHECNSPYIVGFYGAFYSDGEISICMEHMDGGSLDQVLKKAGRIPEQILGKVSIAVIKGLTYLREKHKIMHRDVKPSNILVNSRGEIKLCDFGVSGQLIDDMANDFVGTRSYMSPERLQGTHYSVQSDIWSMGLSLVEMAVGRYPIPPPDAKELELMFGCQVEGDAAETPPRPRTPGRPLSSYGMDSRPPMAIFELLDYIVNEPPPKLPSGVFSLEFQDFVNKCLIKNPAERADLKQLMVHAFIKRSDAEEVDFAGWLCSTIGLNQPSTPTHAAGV

C[C@@H]1CN(c2cc(-c3n[nH]c4ccc(OC5(C)CC5)cc34)ncn2)C[C@H](C)O1 [MLi-2]
inactive: [1] 1% | [2] 2.36% | [3] -4.26% | [4] 6% | [5] 6.75% | [6] -0.77% | [7] 6.76% | [8] 7.67% | [9] 56.5% | [10] -0.455% | [11] 4.28% | [12] 3.88% | [13] -3.77% | [14] -3.35% | [15] 26% | [16] -3.19% | [17] 78.8% | Bos taurus 16% | [18] 6.92%
